Measurements from EP4032896A1, “THIAZOLOPYRIMIDONES AS INHIBITORS OF DDR1/2 AND THERAPEUTIC USES THEREOF” (Fundación del Sector Público Estatal Centro Nacional de …, priority 2021, dated 2022).

Legend:
DDR2 = target: T1, DDR2 (Homo sapiens, UniProt Q16832); assay: LanthaScreen Eu-Kinase Binding Assay (TR-FRET tracer displacement), DDR2; conditions: catalytic domain GST Tag DDR2; Kinase Tracer 178
T1 construct: The enzymes were purchased as a catalytic domain GST Tag DDR1(#PR6913A) and DDR2 (#PR7167A); purchased ThermoFisher PR7167A
T1 sequence (Q16832 563-849 limits assumed): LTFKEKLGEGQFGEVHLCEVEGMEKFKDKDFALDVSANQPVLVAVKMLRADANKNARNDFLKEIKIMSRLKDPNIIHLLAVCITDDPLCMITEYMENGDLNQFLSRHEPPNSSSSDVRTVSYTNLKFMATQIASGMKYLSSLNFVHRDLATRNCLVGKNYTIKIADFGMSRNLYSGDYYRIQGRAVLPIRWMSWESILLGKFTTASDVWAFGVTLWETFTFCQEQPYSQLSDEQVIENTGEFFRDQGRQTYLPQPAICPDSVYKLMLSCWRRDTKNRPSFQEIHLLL
Source text: (§1) DDR1/2 binding assay: The binding assay relies on the LanthaScreen ™ Eu-Kinase Binding Assay (ThermoFisher Scientfic). This is a kinase assay platform based on measuring the binding and displacement of an Alexa Fluor® conjugate of an ATP-competitive kinase inhibitor or tracer at a kinase active site (Kinase Tracer 178. #PV5593). Binding of the tracer to the kinase is detected by addition of a europium (Eu)-labeled anti-GST antibody (#PV 5594) which specifically labels the kinase of interest. This binding results in a high degree of fluorescence resonance energy transfer (FRET), whereas displacement of the tracer with a kinase inhibitor results in a loss of FRET. The enzymes were purchased as a catalytic domain GST Tag DDR1(#PR6913A) and DDR2 (#PR7167A) from ThermoFisher. Assay conditions were as indicated by the kit manufacturers. Assays were performed in 384-well plates. The final read out was generated using an EnVision plate reader (Perkin-Elmer). The emission ratio was calculated by dividing the acceptor/tracer emission (665 nm) by the antibody/donor emission (615 nm). Values were plotted against the inhibitor concentration and fit to a sigmoid dose-response curve using Activity base by IDBS software.

DDR1 [1] = target: T2, DDR1 (Mus musculus, UniProt Q03146); assay: Cellular assay: inhibition of Collagen I-induced DDR1 autophosphorylation in HEK293T cells transiently transfected with DDR1 plasmid (Western blot); assay type: cell-based, human; conditions: pcDNA3.1 DDR1 WT mouse plasmid, compound 1 h, then 10 µg/mL Collagen I 1 h, P-DDR1 (Y513), read-out: pDDR1 EC50
T2 construct: expressed in transfected cells; host or cells: HEK293T
T2 sequence (Q03146 20-911): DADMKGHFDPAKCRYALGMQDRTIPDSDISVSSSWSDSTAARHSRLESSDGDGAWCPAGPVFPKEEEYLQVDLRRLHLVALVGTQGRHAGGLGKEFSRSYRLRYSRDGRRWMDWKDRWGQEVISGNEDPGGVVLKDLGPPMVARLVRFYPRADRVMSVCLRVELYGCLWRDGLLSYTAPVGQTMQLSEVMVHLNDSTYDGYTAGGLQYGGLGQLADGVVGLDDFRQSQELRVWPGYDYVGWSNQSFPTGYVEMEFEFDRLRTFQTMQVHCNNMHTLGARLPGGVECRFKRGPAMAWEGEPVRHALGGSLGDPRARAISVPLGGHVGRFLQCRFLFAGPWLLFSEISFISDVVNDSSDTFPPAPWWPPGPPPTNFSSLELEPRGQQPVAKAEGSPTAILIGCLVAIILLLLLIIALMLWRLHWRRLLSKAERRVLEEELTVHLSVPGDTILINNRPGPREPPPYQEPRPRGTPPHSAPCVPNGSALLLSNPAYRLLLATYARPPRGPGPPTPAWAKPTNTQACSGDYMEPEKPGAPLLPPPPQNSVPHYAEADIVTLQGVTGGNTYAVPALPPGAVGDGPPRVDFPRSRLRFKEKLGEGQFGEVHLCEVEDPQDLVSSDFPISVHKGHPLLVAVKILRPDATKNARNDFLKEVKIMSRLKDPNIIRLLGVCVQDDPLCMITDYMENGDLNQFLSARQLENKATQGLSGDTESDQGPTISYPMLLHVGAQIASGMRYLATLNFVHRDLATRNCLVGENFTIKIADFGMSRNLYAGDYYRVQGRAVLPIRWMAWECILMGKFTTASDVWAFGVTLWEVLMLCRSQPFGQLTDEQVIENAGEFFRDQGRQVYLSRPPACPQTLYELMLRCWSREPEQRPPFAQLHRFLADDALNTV
Description: DDR1/2 cellular assay: Transient transfection of HEK293T cells with DDR1 plasmid is used to study the inhibition of the autophosphorylation of DDR1 induced by Collagen I in cells. HEK293T are seeded, 6x10^5 cells per well in 6-well plates and incubated for 6 h at 37 °C, 5% CO2. Then, cells are transfected using Effectene reactive (Quiagen) with pcDNA3.1 DDR1 WT mouse plasmid. Cells are incubated with transfection complexes under normal growth conditions for 24 h. After that, medium is replaced with fresh medium and cells are incubated for an additional 18 h. Eight serial 1:3 compound dilutions are made in DMSO. The compounds are added to each well of 6 well cell plates and are incubated at 37 °C under CO2 atmosphere 1 h. DDR1's autophosphorylation is stimulated by 1h treatment with 10 µg/mL Collagen I. Then, cells are washed in PBS, lyse adding 100 µl of complete RIPA protein lysis buffer (RIPA Buffer, 1 mM DTT, 5 mM Bezamidine, 10 µg/mL Aprotinin, 10 µg/mL Leupeptin, 710 ng/mL Pepstatin A, 100 µg/mL Trypsin Inhibitor, 40 µg/mL Bestatin, completed with PhosSTOP EASYpack and complete Mini, EDTA-free) and incubated 20 minutes at 4 °C and then centrifugated. Lysates are kept at -80 °C. The protein content of the lysates is determined by DC protein assay (Biorad, Ref. 5000116). The proteins are resolved by SDS-PAGE and transferred to nitrocellulose membrane (GE Healthcare #10600003). The membranes are incubated overnight at 4 °C with antibodies specific for DDR1 (D1G6) (Cell signaling #5583), P-DDR1 (Y513) (E1N8F) (Cell Signaling # 14531) they are washed and then incubated with Alexa Fluor 680 goat anti-rabbit IgG secondary antibodies (Invitrogen, A21076). The bands are visualized and quantified using an Odyssey infrared imaging system (Li-Cor Biosciences). The percentage of DDR1 phosphorylation is finally plotted against concentration for each compound and EC50s for intracellular DDR1 inhibition are calculated using ActivityBase from IDBS.

DDR1 [2] = target: T3, DDR1 (Homo sapiens, UniProt Q08345); assay: LanthaScreen Eu-Kinase Binding Assay (TR-FRET tracer displacement), DDR1; conditions: catalytic domain GST Tag DDR1; Kinase Tracer 178
T3 construct: The enzymes were purchased as a catalytic domain GST Tag DDR1(#PR6913A); purchased ThermoFisher PR6913A
Source text: as §1

T3 sequence (Q08345 610-905 limits assumed): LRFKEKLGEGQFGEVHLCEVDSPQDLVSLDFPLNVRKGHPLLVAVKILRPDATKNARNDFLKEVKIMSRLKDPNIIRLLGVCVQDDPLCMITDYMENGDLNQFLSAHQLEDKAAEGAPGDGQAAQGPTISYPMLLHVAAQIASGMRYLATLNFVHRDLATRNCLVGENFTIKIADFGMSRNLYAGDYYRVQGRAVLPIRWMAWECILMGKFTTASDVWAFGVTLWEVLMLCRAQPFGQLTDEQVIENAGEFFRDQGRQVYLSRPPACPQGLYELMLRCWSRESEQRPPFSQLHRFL

SMILES	IC50 (DDR2) [nM]	EC50 (DDR1 [1]) [nM]	IC50 (DDR1 [2]) [nM]
COc1ccccc1-c1c(-c2ccnc(Nc3cccc(S(N)(=O)=O)c3)n2)sc2nccc(=O)n12 [Compound 46, 3-{4-[3-(2-Methoxy-phenyl)-5-oxo-5H-thiazolo[3,2-a]pyrimidin-2-yl]-pyrimidin-2-ylamino}-benzenesulfonamide]	20.1	30.6	5.3
O=c1ccnc2sc(-c3ccnc(Nc4cccc(N5CCN(CCO)CC5)c4)n3)c(C3CCOCC3)n12 [Compound 66, 2-(2-{3-[4-(2-Hydroxy-ethyl)-piperazin-1-yl]-phenylamino}-pyrimidin-4-yl)-3-(tetrahydropyran-4-yl)-thiazolo[3,2-a]pyrimidin-5-one]	1480	610	321
CN1CCN(c2ccc(Nc3nccc(-c4sc5nccc(=O)n5c4-c4ccccc4)n3)cc2)CC1 [Compound 34, 2-{2-[4-(4-Methyl-piperazin-1-yl)-phenylamino]-pyrimidin-4-yl}-3-phenyl-thiazolo[3,2-a]pyrimidin-5-one]	39.4	15.7	13.4
O=c1ccnc2sc(-c3ccnc(Nc4cccc(N5CCN(CCO)CC5)c4)n3)c(-c3cccc(Cl)c3)n12 [Compound 41, 3-(3-Chloro-phenyl)-2-(2-{3-[4-(2-hydroxy-ethyl)-piperazin-1-yl]-phenylamino}-pyrimidin-4-yl)-thiazolo[3,2-a]pyrimidin-5-one]	36.9	40.4	6.24
O=c1ccnc2sc(-c3ccnc(Nc4cccc(N5CCN(CCO)CC5)c4)n3)c(-c3ccc(Cl)cc3)n12 [Compound 44, 3-(4-Chloro-phenyl)-2-(2-{3-[4-(2-hydroxy-ethyl)-piperazin-1-yl]-phenylamino}-pyrimidin-4-yl)-thiazolo[3,2-a]pyrimidin-5-one]	11.7	24.9	2.73
COc1ccc(-c2c(-c3ccnc(Nc4cccc(S(N)(=O)=O)c4)n3)sc3nccc(=O)n23)cc1 [Compound 52, 3-{4-[3-(4-Methoxy-phenyl)-5-oxo-5H-thiazolo[3,2-a]pyrimidin-2-yl]-pyrimidin-2-ylamino}-benzenesulfonamide]	40.6	112	10.9
O=c1ccnc2sc(-c3ccnc(Nc4cccc(N5CCN(CCO)CC5)c4)n3)c(-c3ccccc3)n12 [Compound 31, 2-(2-{3-[4-(2-Hydroxy-ethyl)-piperazin-1-yl]-phenylamino}-pyrimidin-4-yl)-3-phenyl-thiazolo[3,2-a]pyrimidin-5-one]	18	192	15.5
CN1CCN(c2ccc(Nc3nccc(-c4sc5nccc(=O)n5c4-c4cccc(O)c4)n3)cc2)CC1 [Compound 56, 3-(3-Hydroxy-phenyl)-2-{2-[4-(4-methyl-piperazin-1-yl)-phenylamino]-pyrimidin-4-yl}-thiazolo[3,2-a]pyrimidin-5-one]	17.5	12.2	5.63
O=c1ccnc2sc(-c3ccnc(Nc4cccc(N5CCN(CCO)CC5)c4)n3)c(-c3ccc(F)cc3)n12 [Compound 58, 3-(4-Fluoro-phenyl)-2-(2-{3-[4-(2-hydroxy-ethyl)-piperazin-1-yl]-phenylamino}-pyrimidin-4-yl)-thiazolo[3,2-a]pyrimidin-5-one]	30.5	28	6.4
NS(=O)(=O)c1cccc(Nc2nccc(-c3sc4nccc(=O)n4c3-c3ccccc3)n2)c1 [Compound 30, 3-[4-(5-Oxo-3-phenyl-5H-thiazolo[3,2-a]pyrimidin-2-yl)-pyrimidin-2-ylamino]-benzenesulfonamide]	50	87.4	13.9
O=c1ccnc2sc(-c3ccnc(Nc4cccc(N5CCN(CCO)CC5)c4)n3)c(-c3ccccc3Cl)n12 [Compound 38, 3-(2-Chloro-phenyl)-2-(2-{3-[4-(2-hydroxy-ethyl)-piperazin-1-yl]-phenylamino}-pyrimidin-4-yl)-thiazolo[3,2-a]pyrimidin-5-one]	16.6	28.1	4.22
COc1ccccc1-c1c(-c2ccnc(Nc3ccc(N4CCN(C)CC4)cc3)n2)sc2nccc(=O)n12 [Compound 48, 3-(2-Methoxy-phenyl)-2-{2-[4-(4-methyl-piperazin-1-yl)-phenylamino]-pyrimidin-4-yl}-thiazolo[3,2-a]pyrimidin-5-one]	71.2	27.5	19.3
